From the supplement of paper PMC5752671
Structures can show the parent of a compound that is named as a salt.

Legend:
PL-21 [1] = test: area under dose-response curve (cell viability) (AUC (arbitrary, % viability x log concentration)); higher = less sensitive (more viable); conditions: 4 days
Method: (§1)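 14 AML cell lines were plated on extracellular-matrix-coated 384-well plates and exposed to each drug at 8 concentrations (4-5 logs within 1e-12 to 1e-4 M, tailored per drug) in duplicate. Viability was read by CellTiter-Glo after 4 days. The dose-response (averaged over duplicates) was fitted to a 4-parameter sigmoid, and the area under the curve was taken as the sensitivity measure.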

SKM1 [2] = test: as above; conditions: 4 days
Method: as §1

OCI-AML3 [3] = test: as above; conditions: 4 days
Method: as §1

MOLM/16 [4] = test: as above; conditions: 4 days
Method: as §1

AML.017 = primary AML patient cells; test: area under dose-response curve (cell viability), primary AML patient cells (AUC (arbitrary, % viability x log concentration; ComBat batch-corrected)); higher = less sensitive (more viable); conditions: 4 days; sample type: primary AML patient cells
Summary of the method: (§2)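 Before testing, primary AML cells were DNase-thawed, cultured 48 h in IMDM with horse serum, fetal calf serum and low stem cell factor, and enriched for blasts. On extracellular-matrix-coated 384-well plates at 5000 cells/well, they received drugs the next day at eight concentrations within 10^–12–10^–4 M, in duplicate, and CellTiter-Glo viability was recorded after 4 days. The endpoint was area under the fitted four-parameter curve, corrected for batch using ComBat.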

AML.076 = primary AML patient cells; test: as above; conditions: 4 days; sample type: primary AML patient cells
Summary of the method: as §2

KASUMI1 = test: IC50 (cell viability) (log10 M); conditions: 4 days
Method: (§3)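 14 AML cell lines were treated with 8 drug concentrations in duplicate on ECM-coated 384-well plates, with CellTiter-Glo viability read after 4 days. IC50 is the concentration where the fitted 4-parameter curve crosses 50% viability. For inactive compounds the maximum tested concentration is used as a placeholder.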

PL-21 [5] = test: IC50 (cell viability) (log10 M); conditions: 4 days
Method: as §3

SKM1 [6] = test: IC50 (cell viability) (log10 M); conditions: 4 days
Method: as §3

HL60 = test: IC50 (cell viability) (log10 M); conditions: 4 days
Method: as §3

NB4 = test: IC50 (cell viability) (log10 M); conditions: 4 days
Method: as §3

MOLM/13 = test: IC50 (cell viability) (log10 M); conditions: 4 days
Method: as §3

U937 = test: IC50 (cell viability) (log10 M); conditions: 4 days
Method: as §3

KG1 = test: IC50 (cell viability) (log10 M); conditions: 4 days
Method: as §3

OCI-AML3 [7] = test: IC50 (cell viability) (log10 M); conditions: 4 days
Method: as §3

EOL-1 = test: IC50 (cell viability) (log10 M); conditions: 4 days
Method: as §3

MOLM/16 [8] = test: IC50 (cell viability) (log10 M); conditions: 4 days
Method: as §3

MV4.11 = test: IC50 (cell viability) (log10 M); conditions: 4 days
Method: as §3

OCI-AML2 = test: IC50 (cell viability) (log10 M); conditions: 4 days
Method: as §3

THP-1 = test: IC50 (cell viability) (log10 M); conditions: 4 days
Method: as §3

Row | Structure (SMILES) | area under dose-response curve (PL-21 [1]) | area under dose-response curve (SKM1 [2]) | area under dose-response curve (OCI-AML3 [3]) | area under dose-response curve (MOLM/16 [4]) | area under dose-response curve (AML.017) | area under dose-response curve (AML.076) | IC50 (log10 M) (KASUMI1) | IC50 (log10 M) (PL-21 [5]) | IC50 (log10 M) (SKM1 [6]) | IC50 (log10 M) (HL60) | IC50 (log10 M) (NB4) | IC50 (log10 M) (MOLM/13) | IC50 (log10 M) (U937) | IC50 (log10 M) (KG1) | IC50 (log10 M) (OCI-AML3 [7]) | IC50 (log10 M) (EOL-1) | IC50 (log10 M) (MOLM/16 [8]) | IC50 (log10 M) (MV4.11) | IC50 (log10 M) (OCI-AML2) | IC50 (log10 M) (THP-1)
1 | Cc1cc(C(C)Nc2ccccc2)c2nc(N3CCOCC3)cc(=O)n2c1 (stereo not given) [TGX-221] | 630 | 638 | 650 | 590 | 650 | 714 | > -5 | > -5 | > -5 | > -5 | > -5 | > -5 | > -5 | > -5 | > -5 | -5.06 | > -5 | > -5 | > -5 | > -5
2 | CN1CCN(c2ccc3nc(-c4c(N)c5c(F)cccc5[nH]c4=O)[nH]c3c2)CC1 [TKI258] | 588 | 544 | 659 | 472 | 742 | 679 | -6.25 | > -6 | -6.04 | > -6 | > -6 | -7.91 | > -6 | -6.78 | > -6 | -8.22 | -6.6 | -8.07 | -6.42 | > -6
3 | CC1(C)CCC(C)(C)c2cc(NC(=O)c3ccc(C(=O)O)cc3)ccc21 [Tamibarotene] | 542 | 412 | 297 | 558 | 702 | 657 | > -5 | > -5 | > -5 | > -5 | > -5 | > -5 | > -5 | > -5 | -8.07 | -8.22 | > -5 | -6.79 | -5.38 | > -5
4 | CC/C(=C(\c1ccccc1)c1ccc(OCCN(C)C)cc1)c1ccccc1 [Tamoxifen] | 582 | 636 | 601 | 598 | 719 | 688 | -5.23 | -5.01 | -5.01 | -5.28 | > -5 | > -5 | -5.43 | -5.16 | -5.17 | -5.11 | -5.43 | -5.38 | -5.33 | -5.04
5 | COc1cc2c(N3CCN(C(=O)Nc4ccc(OC(C)C)cc4)CC3)ncnc2cc1OCCCN1CCCCC1 [Tandutinib] | 623 | 653 | 684 | 629 | 606 | 620 | > -5 | > -5 | > -5 | > -5 | > -5 | -6.98 | > -5 | > -5 | > -5 | -7.82 | > -5 | -6.16 | > -5 | > -5
6 | Cn1nnc2c(C(N)=O)ncn2c1=O [Temozolomide] | 611 | 674 | 686 | 622 | 733 | 735 | > -5 | > -5 | > -5 | > -5 | > -5 | > -5 | > -5 | > -5 | > -5 | -5.14 | > -5 | > -5 | > -5 | > -5
7 | CO[C@H]1C[C@@H]2CC[C@@H](C)[C@@](O)(O2)C(=O)C(=O)N2CCCC[C@H]2C(=O)O[C@H]([C@H](C)C[C@@H]2CC[C@@H](OC(=O)C(C)(CO)CO)[C@H](OC)C2)CC(=O)[C@H](C)/C=C(\C)[C@@H](O)[C@@H](OC)C(=O)[C@H](C)C[C@H](C)/C=C/C=C/C=C/1C [Temsirolimus] | 435 | 436 | 557 | 399 | 433 | 569 | -5.22 | -5.28 | -5.46 | -5.09 | > -5 | -5.4 | -7.89 | > -5 | > -5 | -8.34 | -6.13 | -6.33 | -5.46 | > -5
8 | Cn1cncc1[C@@](N)(c1ccc(Cl)cc1)c1ccc2c(c1)c(-c1cccc(Cl)c1)cc(=O)n2C [Tipifarnib] | 441 | 425 | 392 | 208 | 622 | 636 | -6.28 | -5.9 | -5.92 | -5.97 | < -8.34 | -5.86 | -7.51 | -6.6 | -6.36 | < -8.34 | < -8.34 | -6.7 | -6.74 | -8.34
9 | CC[C@@]1(O)C(=O)OCc2c1cc1n(c2=O)Cc2cc3c(CN(C)C)c(O)ccc3nc2-1 [Topotecan HCl] | 299 | 269 | 269 | 240 | 673 | 548 | -8.14 | -8.04 | < -8.34 | -8.26 | < -8.34 | < -8.34 | < -8.34 | < -8.34 | -8.34 | < -8.34 | < -8.34 | < -8.34 | < -8.34 | -7.97
